Data on one molecule can be found in patent US20230390289A1, “COMBINED USE OF IN10018 AND PLD” (INXMED (NANJING) CO., LTD., priority 2021, published 2023).

The data set is described as follows: Study IN10018-006 safety: adverse events (CTCAE). The settings on record: female, human, in vivo. On the procedure: IN10018 in combination with pegylated liposomal doxorubicin (PLD) for the treatment of platinum-resistant ovarian cancer is currently being evaluated in a Phase Ib/II clinical study (IN10018-006) in China. The IN10018 was used as its tartrate, and the PLD was used as commercially available doxorubicin hydrochloride liposome injection (common name). Study subjects received IN10018 100 mg once daily (QD) orally combined with PLD 40 mg/m^2 by intravenous infusion once every 4 weeks (Q4W). A treatment cycle was 28 days.
By Jul. 30, 2021, a total of 26 patients with platinum-resistant ovarian cancer had been enrolled in the study. All subjects received at least one study drug treatment and were included in the safety analysis; 18 subjects had at least one post-baseline tumor imaging evaluation and were included in efficacy analysis.
By Jun. 22, 2021, 21 of the 22 subjects enrolled had adverse events (AEs), and according to the investigator's assessment, 20 of them had AEs related to IN10018. Regardless of the correlation, the system organ classes (SOC) of AE reported by at least 2 subjects were investigations (90.9%), gastrointestinal disorders (81.8%), renal and urinary disorders (72.7%), general disorders and administration site conditions (59.1%), metabolism and nutrition disorders (59.1%), infections and infestations (54.5%), blood and lymphatic system disorders (50.0%), respiratory, thoracic and mediastinal disorders (27.3%), musculoskeletal and connective tissue disorders (22.7%), skin and subcutaneous tissue disorders (18.2%), nervous system disorders (13.6%), cardiac disorders (18.2%) and psychiatric disorders (9.1%).
By Jun. 22, 2021, a total of 5 of the 22 subjects enrolled had serious adverse events (SAEs), of which 3 subjects reported SAEs related to IN10018: loss of appetite (grade 3, related to both IN10018 and PLD), constipation (grade 2, related to both IN10018 and PLD), abdominal distension (grade 3, related to both IN10018 and PLD), and elevated creatinine (grade 2, related to both IN10018 and PLD). No subject had adverse events leading to dose reduction of IN10018. Adverse events leading to discontinuation of study treatment were reported by 2 subjects, wherein loss of appetite (grade 3) leading to discontinuation in 1 subject was associated with both IN10018 and PLD. […] There were no adverse events leading to death in the study.

SMILES strings stand for the structures.

As for `COc1cc(C(=O)NC2CCN(C)CC2)c(F)cc1Nc1ncc(C(F)(F)F)c(Oc2cccc3c2C(=O)N(C)C3)n1` [IN10018, 2-fluoro-5-methoxy-4-[(4-(2-methyl-3-oxo-2,3-dihydro-1H-isoindole-4-oxy)-5-trifluoromethyl-pyrimidin-2-yl)amino]-N-(1-methyl-piperidin-4-yl)benzamide], the “SAE abdominal distension, grade” value is 3 grade; the “SAE constipation, grade” value amounted to 2 grade; the “SAE elevated creatinine, grade” value worked out at 2 grade; the “SAE loss of appetite, grade” value is recorded as 3 grade.
